Test results: patent US6117889A, “7-Azabicyclo-[2.2.1]-heptane and -heptene derivatives as analgesics and anti-inflammatory agents” (priority 1996, dated 2000)
Where two headings read alike, the source gives them in different places.

Tests used:
[1] = tested on: acetylcholine nicotinic receptor; assay: nicotinic receptor binding, [3H]-NMCI radioligand, rat cortex (Table 5)
Protocol: 7-aza-bicyclo[2.2.1]-heptanes and -heptenes were evaluated for their ability to bind to the acetylcholine nicotinic receptor using a standard binding assay, e.g. X. Zhang and A. Nordberg, Arch. Pharmacol., 348, 28 (1993); R. E. Middleton and J. B. Cohen, Biochemistry, 30, 6987 (1991), with nicotine sulfate as the reference compound, rat cortex as the tissue substrate, and a [^3 H]-NMCI radioligand.

[2] = analgesic activity, Straub-Tail assay (Table 4); format: in vivo
From the text: A wide variety of biological assays have been used to evaluate the ability of a compound to act as an analgesic. Any of these known assays can be used to evaluate the analgesic ability of the compounds disclosed herein. The Straub-tail reaction, which is characteristic of opiate alkaloids, has been used as an assay for opiate agonists and antagonists. The assay is described in detail in Br. J. of Pharmacol. 1969, 36, 225. Another accepted assay for analgesic activity is the hot plate analgesia assay, described in J. of Pharmacol. Exp. Therap. 1953, 107, 385. An assay for the evaluation of the ability of a compound to bind to an opiate receptor is described in Mol. Pharmacol. 1974, 10, 868.
[…] Daly et al. J. Am. […] Chem. Soc. 1992, 114, 3475; T. Li, et al. Bioorganic and Medicinal Chemistry Letters 1993, 3, 2759.

[3] = Straub-Tail assay, read-out: ED50

SMILES: N=CN1C2CCC1C(c1cccnc1)C2 (stereo not drawn)
- Inhibition % ([1]; testing level 10^-9): 5%

SMILES: CN1[C@@H]2CC[C@H]1[C@H](c1ccc(Cl)nc1)C2 (relative stereo) [drawing 33]
- ED50 [2, 3]: < 0.01 mg/kg

SMILES: Clc1ccc([C@@H]2C[C@H]3CC[C@@H]2N3CC2CC2)cn1 (relative stereo)
- analgesic activity (Straub-Tail), % at 1000 μg/Kg ([2]; @ 1000 (μg/Kg)): 100%

SMILES: Fc1ccc([C@@H]2C[C@H]3CC[C@@H]2N3)cn1 (relative stereo)
- ED50 [2, 3]: ~0.05 mg/kg

SMILES: Clc1ccc([C@@H]2C[C@H]3C=C[C@@H]2N3)cn1 (relative stereo)
- ED50 [2, 3]: < 1 mg/kg

SMILES: Clc1ccc([C@@H]2C[C@H]3CC[C@@H]2N3CCc2ccccc2)cn1 (relative stereo)
- ED50 [2, 3]: < 1 mg/kg

SMILES: CC(C)(C)Oc1ccc([C@@H]2C[C@H]3CC[C@@H]2N3)cn1 (relative stereo)
- ED50 [2, 3]: ~1 mg/kg

SMILES: CN1C2CCC1C(c1ccc(Cl)nc1)C2 (stereo not drawn) [R = CH3]
- Inhibition % ([1]; testing level 10^-5 M): 81%

SMILES: Clc1ccc(C2CC3CCC2N3)cn1 (stereo not drawn) [R = H]
- Inhibition % ([1]; testing level 10^-7 M): 24%

SMILES: c1cncc([C@@H]2C[C@H]3CC[C@@H]2N3)c1 (relative stereo)
- ED50 [2, 3]: 0.25 mg/kg

SMILES: N=CN1C2CCC1C(c1ccc(Cl)nc1)C2 (stereo not drawn)
- Inhibition % ([1]; testing level 10^-9): 49%
- Inhibition % ([1]; testing level 10^-11): 22%

SMILES: C[N+]1(C)C2CCC1C(c1ccc(Cl)nc1)C2 (stereo not drawn)
- Inhibition % ([1]; testing level 10^-7 M): 100%
- Inhibition % ([1]; testing level 10^-9): 49%

SMILES: N=CN1[C@@H]2CC[C@H]1[C@H](c1ccc(Cl)nc1)C2 (relative stereo)
- analgesic activity (Straub-Tail), % at 100 ([2]; @ 100): 99%

SMILES: COc1ccc([C@@H]2C[C@H]3CC[C@@H]2N3)cn1 (relative stereo)
- ED50 [2, 3]: 0.75 mg/kg

SMILES: ClCCN1[C@@H]2CC[C@H]1[C@H](c1ccc(Cl)nc1)C2 (relative stereo)
- ED50 [2]: ~0.1 mg/kg

SMILES: Clc1ccc([C@@H]2C[C@H]3CC[C@@H]2N3)cn1 (relative stereo)
- ED50 ([2]; Straub-Tail assay): 0.01 mg/kg
